Data reported in the supplement of paper PMC10307832.

Tests used:
Assay in all cases: relative viability (nuclei count vs DMSO), 5 days (fraction); higher = more cells survive
R406 + Foretinib = compound: COc1cc(Nc2ncc(F)c(Nc3ccc4c(n3)NC(=O)C(C)(C)O4)n2)cc(OC)c1OC [R406] + COc1cc2c(Oc3ccc(NC(=O)C4(C(=O)Nc5ccc(F)cc5)CC4)cc3F)ccnc2cc1OCCCN1CCOCC1 [Foretinib] (partner 0.25 µM)
In short: (§1)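 Relative viability equals treated-well nuclei counts divided by vehicle-well nuclei counts. Counts came from 4× images of lung cancer cell lines grown in 1536-well plates for 5 days after pin-tool dosing on the day after seeding. Dosing used one drug alone or a fixed anchor-drug dose plus five library-drug doses (not always all listed) in √10 steps, and values are medians of duplicate plates.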

R406 + Vorinostat = compound: COc1cc(Nc2ncc(F)c(Nc3ccc4c(n3)NC(=O)C(C)(C)O4)n2)cc(OC)c1OC [R406] + O=C(CCCCCCC(=O)Nc1ccccc1)NO [Vorinostat] (partner 1 µM)
In short: as §1

Daporinad + Trametinib = compound: O=C(/C=C/c1cccnc1)NCCCCC1CCN(C(=O)c2ccccc2)CC1 [Daporinad] + CC(=O)Nc1cccc(-n2c(=O)n(C3CC3)c(=O)c3c(Nc4ccc(I)cc4F)n(C)c(=O)c(C)c32)c1 [Trametinib] (partner 0.02 µM)
In short: as §1

Daporinad + Navitoclax = compound: O=C(/C=C/c1cccnc1)NCCCCC1CCN(C(=O)c2ccccc2)CC1 [Daporinad] + CC1(C)CCC(c2ccc(Cl)cc2)=C(CN2CCN(c3ccc(C(=O)NS(=O)(=O)c4ccc(N[C@H](CCN5CCOCC5)CSc5ccccc5)c(S(=O)(=O)C(F)(F)F)c4)cc3)CC2)C1 [Navitoclax] (partner 0.5 µM)
In short: as §1

Cell Line	relative viability (R406 + Foretinib; first compound 0.08 µM)	relative viability (R406 + Foretinib; first compound 0.253 µM)	relative viability (R406 + Foretinib; first compound 0.8 µM)	relative viability (R406 + Foretinib; first compound 2.53 µM)	relative viability (R406 + Foretinib; first compound 8 µM)	relative viability (R406 + Vorinostat; first compound 0.08 µM)	relative viability (R406 + Vorinostat; first compound 0.253 µM)	relative viability (R406 + Vorinostat; first compound 0.8 µM)	relative viability (R406 + Vorinostat; first compound 2.53 µM)	relative viability (R406 + Vorinostat; first compound 8 µM)	relative viability (Daporinad + Trametinib; first compound 0.0005 µM)	relative viability (Daporinad + Trametinib; first compound 0.005 µM)	relative viability (Daporinad + Trametinib; first compound 0.01581 µM)	relative viability (Daporinad + Navitoclax; first compound 0.0005 µM)	relative viability (Daporinad + Navitoclax; first compound 0.001581 µM)	relative viability (Daporinad + Navitoclax; first compound 0.005 µM)	relative viability (Daporinad + Navitoclax; first compound 0.01581 µM)	relative viability (Daporinad + Trametinib; first compound 0.001581 µM)
NCI-H2085	0.847	1.08	0.973	0.912	0.289	0.749	0.8	0.847	0.691	0.561	0.515	0.653	0.538	1.17	1.25	1.23	1.03	
NCI-H2087	1.2	1.05	1.04		0.609	0.43	0.741	0.885	0.646	0.954	0.18	0.263	0.22	1.05	0.881	1.03	0.912	0.213
NCI-H2126	1.16	0.824	1.26	1.04	1	0.833	0.797	0.819	0.581	0.707	0.562	0.604	0.587	0.914	0.751	0.845	0.874	0.548
NCI-H2170	0.964	1.11	1	0.916	0.814	0.799	0.791	0.987	0.571	0.658	0.789	0.84	0.948	0.619	0.561	0.637	0.825	0.943
NCI-H2228	0.798	1.01	0.972	0.567	0.337	0.693	0.64	0.786	0.281	0.175	0.439	0.576	0.531	1.05	1.1	1.09	0.945	0.18
NCI-H2347	1.11	1.09	1.29	0.61	0.348	0.586	0.651	0.767	0.383	0.397	0.301	0.281	0.329	0.926	0.887	0.885	0.779	0.288
NCI-H2405	0.961	1.15	1.11	0.934	0.775	1	1.39	1.14	0.624	0.245	0.69	0.647	0.509	0.948	0.962	0.684	0.321	0.664
NCI-H3122	0.962	0.959	0.931		0.887	0.884	1.1	1.03	0.923	0.928	0.165	0.213	0.217	1.01	1.02	1.02	0.987	0.227
PC-3 [JPC-3]	0.981	1.08	1.09	0.827	0.372	0.811	1.01	0.861	0.546	0.381	0.667	0.758	0.842	0.763	0.796	0.827	0.789	0.714
PC-14	0.919	0.941	0.97	0.875	0.635	0.71	0.84	0.975	0.523	0.451	0.657	0.722	0.572	1.05	1	0.875	0.721	0.654
RERF-LC-KJ	0.937	0.951	0.997	0.785	0.809	0.669	0.811	0.732	0.583	0.552	0.788	0.955	0.921	1.04	0.984	1.01	1.18	1.01
SK-LU-1	0.708	0.816	0.992	0.439	0.12	0.84	0.822	0.764	0.555	0.155	0.48	0.55	0.615	0.901	0.646	0.672	1.1	0.522
SK-MES-1	0.892	0.921	0.976	0.49	0.396	1.05	1.14	1.21	0.996	0.158	0.561	0.613	0.743	1.27	1.16	1.31	0.852	0.524
SW 1573	0.908	0.915	0.887	0.932	0.665	0.57	1.18	0.947	0.658	0.305	0.499	0.447	0.28	0.897	0.991	0.755	0.457	0.45
